Tests used:
[1] = molecular target: Serine/threonine-protein kinase/endoribonuclease IRE1 (Homo sapiens) (UniProt O75460); conditions: at 10 µM
[2] = molecular target: T1, Dual specificity mitogen-activated protein kinase kinase 6 (Homo sapiens) (UniProt P52564); test: Selectivity interaction (KinomeScan (DiscoverX)) EUB0001049a MAP2K6; conditions: at 1 µM
T1 sequence (whole entry): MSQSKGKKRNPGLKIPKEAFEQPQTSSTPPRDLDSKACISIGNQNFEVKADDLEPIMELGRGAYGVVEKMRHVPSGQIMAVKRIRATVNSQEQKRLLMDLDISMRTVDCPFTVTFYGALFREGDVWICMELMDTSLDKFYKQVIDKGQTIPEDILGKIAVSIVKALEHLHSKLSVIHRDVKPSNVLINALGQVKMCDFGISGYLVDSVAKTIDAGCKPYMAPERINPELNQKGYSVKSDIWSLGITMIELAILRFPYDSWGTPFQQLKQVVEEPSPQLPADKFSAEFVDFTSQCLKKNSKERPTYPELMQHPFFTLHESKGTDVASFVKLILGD

[3] = molecular target: Rho-associated protein kinase 1 (Homo sapiens) (UniProt Q13464); test: Selectivity interaction (Kinase panel (literature)) EUB0001199aCl ROCK1; conditions: at 1 µM
Sequence of Rho-associated protein kinase 1 (Homo sapiens) (Q13464 2-1354 limits assumed): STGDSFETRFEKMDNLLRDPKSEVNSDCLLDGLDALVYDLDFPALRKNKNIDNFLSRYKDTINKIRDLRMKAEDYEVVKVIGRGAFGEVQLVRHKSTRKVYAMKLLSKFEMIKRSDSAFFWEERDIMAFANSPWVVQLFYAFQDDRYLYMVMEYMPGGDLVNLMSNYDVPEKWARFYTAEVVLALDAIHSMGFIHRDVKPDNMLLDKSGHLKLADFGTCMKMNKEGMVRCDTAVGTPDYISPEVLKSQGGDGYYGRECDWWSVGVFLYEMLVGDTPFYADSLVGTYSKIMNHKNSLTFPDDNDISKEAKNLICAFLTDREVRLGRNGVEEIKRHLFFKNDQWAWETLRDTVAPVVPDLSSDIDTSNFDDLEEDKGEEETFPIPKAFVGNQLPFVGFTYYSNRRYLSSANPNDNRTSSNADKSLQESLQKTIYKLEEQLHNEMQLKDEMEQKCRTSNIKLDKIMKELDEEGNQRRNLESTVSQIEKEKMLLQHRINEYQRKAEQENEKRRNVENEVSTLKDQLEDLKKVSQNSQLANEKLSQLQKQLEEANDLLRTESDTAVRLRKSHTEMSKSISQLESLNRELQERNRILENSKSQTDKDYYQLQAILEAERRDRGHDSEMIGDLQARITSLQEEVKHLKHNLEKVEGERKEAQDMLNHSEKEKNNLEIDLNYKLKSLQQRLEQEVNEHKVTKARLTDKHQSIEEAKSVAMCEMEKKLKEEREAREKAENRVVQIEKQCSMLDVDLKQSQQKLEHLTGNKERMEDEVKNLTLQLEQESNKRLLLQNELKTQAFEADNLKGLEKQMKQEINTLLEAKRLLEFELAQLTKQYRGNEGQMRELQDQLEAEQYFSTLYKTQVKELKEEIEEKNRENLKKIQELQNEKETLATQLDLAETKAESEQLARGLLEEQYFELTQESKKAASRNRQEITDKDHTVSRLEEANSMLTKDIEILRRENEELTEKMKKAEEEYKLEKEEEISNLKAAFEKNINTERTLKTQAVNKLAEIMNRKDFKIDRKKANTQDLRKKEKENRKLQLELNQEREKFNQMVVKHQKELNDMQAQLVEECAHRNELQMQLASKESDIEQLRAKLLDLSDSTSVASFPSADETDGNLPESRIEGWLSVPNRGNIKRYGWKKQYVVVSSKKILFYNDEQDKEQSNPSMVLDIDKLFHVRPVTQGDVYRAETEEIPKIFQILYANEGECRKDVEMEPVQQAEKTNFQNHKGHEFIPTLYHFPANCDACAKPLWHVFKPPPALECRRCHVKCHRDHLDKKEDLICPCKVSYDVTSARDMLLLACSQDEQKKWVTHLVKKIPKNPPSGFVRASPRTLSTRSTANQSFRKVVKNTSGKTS

[4] = molecular target: Death-associated protein kinase 3 (Homo sapiens) (UniProt O43293); conditions: at 10 µM
Sequence of Death-associated protein kinase 3 (Homo sapiens) (O43293 whole entry, looked up): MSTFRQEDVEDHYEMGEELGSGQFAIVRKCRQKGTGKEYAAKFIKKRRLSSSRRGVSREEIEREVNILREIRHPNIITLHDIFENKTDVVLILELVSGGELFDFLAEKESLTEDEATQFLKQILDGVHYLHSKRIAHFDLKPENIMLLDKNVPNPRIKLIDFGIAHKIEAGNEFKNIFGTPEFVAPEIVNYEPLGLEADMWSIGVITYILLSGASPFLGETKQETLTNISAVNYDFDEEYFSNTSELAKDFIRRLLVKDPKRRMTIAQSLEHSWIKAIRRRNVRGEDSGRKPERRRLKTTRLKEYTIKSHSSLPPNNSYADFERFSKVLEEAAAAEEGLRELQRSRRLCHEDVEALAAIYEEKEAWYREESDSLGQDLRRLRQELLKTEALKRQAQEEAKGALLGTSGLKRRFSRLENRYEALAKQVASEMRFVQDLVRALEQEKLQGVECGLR

[5] = molecular target: Serine/threonine-protein kinase tousled-like 2 (Homo sapiens) (UniProt Q86UE8); test: Selectivity interaction (KinomeScan (DiscoverX)) EUB0000229b TLK2; conditions: at 10 µM
Sequence of Serine/threonine-protein kinase tousled-like 2 (Homo sapiens) (Q86UE8 whole entry, looked up): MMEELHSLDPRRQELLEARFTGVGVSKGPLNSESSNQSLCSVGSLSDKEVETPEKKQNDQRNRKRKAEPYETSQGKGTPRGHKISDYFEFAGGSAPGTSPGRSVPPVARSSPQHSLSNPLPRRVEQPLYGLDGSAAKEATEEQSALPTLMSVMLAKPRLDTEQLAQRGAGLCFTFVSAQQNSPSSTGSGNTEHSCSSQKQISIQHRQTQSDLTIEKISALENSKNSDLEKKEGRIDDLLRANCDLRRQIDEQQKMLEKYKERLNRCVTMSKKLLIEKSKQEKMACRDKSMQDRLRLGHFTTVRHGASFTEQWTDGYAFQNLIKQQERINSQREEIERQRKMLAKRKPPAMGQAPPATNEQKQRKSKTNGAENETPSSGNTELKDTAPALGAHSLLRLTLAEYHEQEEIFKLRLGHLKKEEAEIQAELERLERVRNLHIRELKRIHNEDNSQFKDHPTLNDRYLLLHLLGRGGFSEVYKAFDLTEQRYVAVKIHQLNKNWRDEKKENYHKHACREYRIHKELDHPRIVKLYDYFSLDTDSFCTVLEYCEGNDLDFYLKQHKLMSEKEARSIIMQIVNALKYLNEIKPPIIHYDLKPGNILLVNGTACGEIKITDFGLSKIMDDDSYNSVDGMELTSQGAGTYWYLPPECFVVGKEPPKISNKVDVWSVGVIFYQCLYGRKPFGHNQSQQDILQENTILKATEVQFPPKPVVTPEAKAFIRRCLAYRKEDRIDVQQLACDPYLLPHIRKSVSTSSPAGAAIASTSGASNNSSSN

[6] = molecular target: T2, TGF-beta receptor type-1 (Homo sapiens) (UniProt P36897); test: Selectivity interaction (ProQinase) EUB0000171b TGFBR1
T2 sequence (whole entry): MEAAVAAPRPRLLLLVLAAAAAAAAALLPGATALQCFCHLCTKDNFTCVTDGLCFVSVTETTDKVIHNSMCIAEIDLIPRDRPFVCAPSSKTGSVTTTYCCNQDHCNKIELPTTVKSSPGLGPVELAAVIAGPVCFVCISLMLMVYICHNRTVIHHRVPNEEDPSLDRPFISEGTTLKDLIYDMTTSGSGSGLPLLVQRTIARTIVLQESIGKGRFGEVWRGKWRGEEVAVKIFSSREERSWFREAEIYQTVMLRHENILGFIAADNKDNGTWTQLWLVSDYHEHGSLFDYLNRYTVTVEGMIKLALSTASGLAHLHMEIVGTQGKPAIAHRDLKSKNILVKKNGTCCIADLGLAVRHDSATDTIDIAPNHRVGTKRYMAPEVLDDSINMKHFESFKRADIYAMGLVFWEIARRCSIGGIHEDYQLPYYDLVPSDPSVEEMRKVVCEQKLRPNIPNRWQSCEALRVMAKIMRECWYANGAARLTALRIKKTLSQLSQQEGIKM

[7] = molecular target: Serine/threonine-protein kinase PLK3 (Homo sapiens, UniProt Q9H4B4); test: Selectivity interaction (Upstate Kinase Profiler service (Millipore)) EUB0000056c PLK3; conditions: at 1 µM
Sequence of Serine/threonine-protein kinase PLK3 (Q9H4B4 whole entry, looked up): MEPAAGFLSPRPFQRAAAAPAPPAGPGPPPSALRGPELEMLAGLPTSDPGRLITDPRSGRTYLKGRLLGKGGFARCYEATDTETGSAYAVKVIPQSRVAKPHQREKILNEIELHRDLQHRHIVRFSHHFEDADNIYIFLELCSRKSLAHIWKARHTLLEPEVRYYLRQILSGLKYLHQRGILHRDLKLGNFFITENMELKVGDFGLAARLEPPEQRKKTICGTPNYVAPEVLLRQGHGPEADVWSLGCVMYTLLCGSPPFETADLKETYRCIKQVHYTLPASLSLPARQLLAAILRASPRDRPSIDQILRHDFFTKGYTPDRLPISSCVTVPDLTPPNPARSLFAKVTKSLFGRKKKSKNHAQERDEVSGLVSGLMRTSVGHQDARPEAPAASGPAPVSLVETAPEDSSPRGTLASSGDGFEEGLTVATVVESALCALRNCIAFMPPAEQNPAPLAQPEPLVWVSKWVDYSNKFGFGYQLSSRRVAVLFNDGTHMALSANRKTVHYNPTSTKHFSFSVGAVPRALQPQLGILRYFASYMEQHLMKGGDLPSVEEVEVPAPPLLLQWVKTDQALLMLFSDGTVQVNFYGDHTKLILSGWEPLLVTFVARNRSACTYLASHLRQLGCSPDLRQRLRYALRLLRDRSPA

[8] = molecular target: Protein kinase C theta type (Homo sapiens, UniProt Q04759); test: Selectivity interaction (Upstate Kinase Profiler service (Millipore)) EUB0000056c PRKCQ; conditions: at 1 µM
[9] = molecular target: Ribosomal protein S6 kinase alpha-2 (Homo sapiens) (UniProt Q15349); test: Selectivity interaction (KinomeScan (DiscoverX)) EUB0000045b RPS6KA2; conditions: at 10 µM
[10] = molecular target: T3, NUAK family SNF1-like kinase 1 (Homo sapiens) (UniProt O60285); test: Selectivity interaction (KinomeScan (DiscoverX)) EUB0001619a NUAK1; conditions: at 1 µM
T3 sequence (whole entry): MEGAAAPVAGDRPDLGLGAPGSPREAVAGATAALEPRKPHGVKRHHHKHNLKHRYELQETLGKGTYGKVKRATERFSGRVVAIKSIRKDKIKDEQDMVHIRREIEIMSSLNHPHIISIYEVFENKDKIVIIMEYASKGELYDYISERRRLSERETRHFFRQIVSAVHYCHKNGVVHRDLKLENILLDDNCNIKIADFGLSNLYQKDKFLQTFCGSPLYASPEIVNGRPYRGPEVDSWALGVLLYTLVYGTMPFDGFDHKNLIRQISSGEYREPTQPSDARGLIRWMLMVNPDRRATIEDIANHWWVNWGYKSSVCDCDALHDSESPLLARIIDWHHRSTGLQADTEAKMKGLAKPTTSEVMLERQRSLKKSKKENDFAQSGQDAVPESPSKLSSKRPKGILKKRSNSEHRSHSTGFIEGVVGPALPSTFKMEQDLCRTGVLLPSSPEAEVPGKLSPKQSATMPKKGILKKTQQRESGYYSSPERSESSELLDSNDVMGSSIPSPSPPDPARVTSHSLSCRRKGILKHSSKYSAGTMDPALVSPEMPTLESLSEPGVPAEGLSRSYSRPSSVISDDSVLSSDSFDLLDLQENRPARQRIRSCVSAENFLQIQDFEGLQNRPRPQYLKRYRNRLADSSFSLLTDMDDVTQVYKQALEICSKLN

[11] = molecular target: Mitogen-activated protein kinase 3 (Homo sapiens, UniProt P27361); test: Selectivity interaction (ActivX KiNativ screen (ex vivo kinase selectivity in human PBMCs)) EUB0001619a MAPK3; assay type: cell-based; conditions: PBMC, at 1 µM
Sequence of Mitogen-activated protein kinase 3 (P27361 whole entry): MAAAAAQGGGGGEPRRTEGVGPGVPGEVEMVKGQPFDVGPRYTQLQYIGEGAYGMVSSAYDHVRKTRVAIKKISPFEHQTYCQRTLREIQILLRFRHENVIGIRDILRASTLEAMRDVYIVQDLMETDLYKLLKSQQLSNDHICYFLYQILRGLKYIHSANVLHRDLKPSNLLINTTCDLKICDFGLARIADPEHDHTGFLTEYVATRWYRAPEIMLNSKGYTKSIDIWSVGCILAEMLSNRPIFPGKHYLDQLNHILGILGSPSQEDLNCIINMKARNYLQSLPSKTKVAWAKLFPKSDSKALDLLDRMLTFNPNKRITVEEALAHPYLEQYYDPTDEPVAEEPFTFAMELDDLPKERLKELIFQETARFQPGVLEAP

[12] = molecular target: T4, Serine/threonine-protein kinase STK11 (Homo sapiens) (UniProt Q15831); test: Selectivity interaction (KinomeScan (DiscoverX)) EUB0000618a STK11; conditions: at 10 µM
T4 sequence (whole entry): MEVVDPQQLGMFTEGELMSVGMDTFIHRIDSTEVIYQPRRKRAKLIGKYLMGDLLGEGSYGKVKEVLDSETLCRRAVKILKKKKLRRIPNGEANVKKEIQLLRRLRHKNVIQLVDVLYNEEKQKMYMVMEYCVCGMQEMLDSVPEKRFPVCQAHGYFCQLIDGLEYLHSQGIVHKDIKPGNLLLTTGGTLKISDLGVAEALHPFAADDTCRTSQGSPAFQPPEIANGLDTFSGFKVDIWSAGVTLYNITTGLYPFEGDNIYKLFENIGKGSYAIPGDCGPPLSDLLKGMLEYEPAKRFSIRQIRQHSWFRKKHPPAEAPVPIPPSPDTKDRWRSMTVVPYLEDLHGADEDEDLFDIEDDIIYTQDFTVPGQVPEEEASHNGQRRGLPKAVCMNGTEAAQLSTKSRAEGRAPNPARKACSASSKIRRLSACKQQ

[13] = molecular target: Serine/threonine-protein kinase tousled-like 2 (Homo sapiens) (UniProt Q86UE8); test: Selectivity interaction (KinomeScan (DiscoverX)) EUB0000618a TLK2; conditions: at 10 µM
[14] = molecular target: Ribosomal protein S6 kinase beta-2 (Homo sapiens) (UniProt Q9UBS0); test: Selectivity interaction (Kinase panel (KiNativ target engagement assay in Jurkat cells)) EUB0001635a RPS6KB2; assay type: cell-based; conditions: Selectivity number of off-targets 0.0, Selectivity number of targets 233.0, Source Knowledge https://www.sciencedirect.com/science/article/pii/S2451945619300674?via%3Dihub, at 1 µM
Sequence of Ribosomal protein S6 kinase beta-2 (Homo sapiens) (Q9UBS0 whole entry): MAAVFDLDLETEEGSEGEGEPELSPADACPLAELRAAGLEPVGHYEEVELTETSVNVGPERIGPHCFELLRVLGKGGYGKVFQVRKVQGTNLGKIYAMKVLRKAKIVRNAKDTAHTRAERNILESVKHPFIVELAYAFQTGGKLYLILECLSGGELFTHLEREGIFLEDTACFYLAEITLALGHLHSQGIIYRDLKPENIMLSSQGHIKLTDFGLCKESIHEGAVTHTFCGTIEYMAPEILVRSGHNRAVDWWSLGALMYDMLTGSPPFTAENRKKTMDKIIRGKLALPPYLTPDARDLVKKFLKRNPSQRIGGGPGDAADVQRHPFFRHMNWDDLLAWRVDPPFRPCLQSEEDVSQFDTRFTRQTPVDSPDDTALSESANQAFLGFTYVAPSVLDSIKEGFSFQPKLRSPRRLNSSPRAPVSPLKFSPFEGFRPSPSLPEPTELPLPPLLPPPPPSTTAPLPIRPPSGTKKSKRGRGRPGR

[15] = molecular target: Serine/threonine-protein kinase pim-3 (Homo sapiens) (UniProt Q86V86); test: Selectivity interaction (KinomeScan (DiscoverX)) EUB0000666a PIM3; conditions: at 10 µM

Question: `Cc1cc([C@@H](C)Nc2ccccc2C(=O)O)c2nc(N3CCOCC3)cc(=O)n2c1` [AZD-6482] was tested. Which % of control [1] did it give?
Answer: 91%

Question: Which % of control [2] does the source give for `COc1cc(Nc2nc(C)cc(-c3cnn4nc(OC)ccc34)n2)cc(C(F)(F)F)c1` here?
Answer: 100%

Question: With `CN1Cc2nccc(-c3cn(C)nc3-c3ccc(F)cc3)c2C1=O` as the compound, how does the % of inhibition [3] read?
Answer: -3%

Question: For `COCC(=O)NC/C=C/c1ccc2ncnc(Nc3ccc(Oc4ccc(C)nc4)c(C)c3)c2c1` [CP-724714], which % of control [4] is on record?
Answer: 96%

Question: With `COc1cc(N(C)c2ccnc3ccc(C(F)(F)F)cc23)cc(OC)c1OC` as the compound, how does the % binding [5] read?
Answer: 92%

Question: For `C=CC(=O)Nc1cccc(C(=O)Nc2ccc(Nc3cc(-c4[nH]c(SC)nc4C)ccn3)cc2)c1`, which % of control ([6]; at 1 µM) is on record?
Answer: 106%

Question: And the % of control ([6]; at 5 µM)?
Answer: 92%

Question: For `Cc1ccc(-c2ccc3c(ccc4sc5c(c43)NC[C@@H](C)NC5=O)n2)cn1`, which % of inhibition [7] is on record?
Answer: -2%

Question: And the % of inhibition [8]?
Answer: 27%

Question: Which % of control [9] does the source give for `C=CC(=O)Nc1cc(-n2c(=O)ccc3cnc4ccc(-c5ccc(NS(C)(=O)=O)cc5)cc4c32)ccc1C` here?
Answer: 78%

Question: With `N#Cc1cccc(-c2c[nH]c3ncnc(N4CCOCC4)c23)c1` as the compound, how does the % of control [10] read?
Answer: 71%

Question: What about the % of inhibition [11] of the same compound?
Answer: 3%

Question: How did the % of control [12] turn out when `O[C@H]1CC[C@H](Nc2ncc3nc(Nc4c(F)cc(F)cc4F)n([C@H]4CCOC4)c3n2)CC1` was run?
Answer: 100%

Question: And the % of control [13]?
Answer: 99%

Question: For `C=CC(=O)Nc1ccc(C(=O)Nc2[nH]nc3c2CN(C(=O)N[C@H](CN(C)C)c2ccccc2)C3(C)C)cc1`, which % of engagement [14] is on record?
Answer: -8.9%

Question: `O=C(NOC[C@H](O)CO)c1ccc(F)c(F)c1Nc1ccc(I)cc1F` was tested. Which % of control [15] did it give?
Answer: 100%
